In PubChem BioAssay AID2060887 (Molecular Pharmacology Branch, DTP, NCI, 2025):

Tested on: 782815-120-R-J1-PDC complex spheroid viability
Experiment: Anticancer human tumor 782815-120-R-J1-PDC patient-derived colon adenocarcinoma cell line growth inhibition [RAS]
Conditions: for IC50: curve of first compound; for viability, T/C: stronger effect = lower value; active = viability on the fitted dose curve at most 10% of control; inactive = the rest
Summary of the method: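 Agents were tested in combination matrices in half-log decrements from a top concentration at or near clinical Cmax (10 microM if undetermined). Targets were multi-cell spheroids of tumour lines plus HUVEC and MSC stromal cells.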
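Also: spheroids exposed to compounds for 7 days before reading.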
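For viability, T/C in this document: 100% = DMSO vehicle control viability.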

CCC(CC)c1cc(NC2CCC(N)C2)n2nccc2n1 (configuration not stated) + CCn1c(-c2cccnc2C(C)OC)c2c3cc(ccc31)N1CCOC(CC(NC(=O)C(C(C)C)N(C)C(=O)C3(F)CCN(C(=O)C#CC(C)(C)N(C)C)CC3)C(=O)N3CCCC(N3)C(=O)OCC(C)(C)C2)C1
3080 nM: IC50 (second compound 0.003 µM)
2930 nM: IC50 (second compound 0.000949 µM)
inactive: viability, T/C (second compound 0.000949 µM, first compound 0.0316 µM) 98.6% | viability, T/C (second compound 0.000949 µM, first compound 0.1 µM) 90.5% | viability, T/C (second compound 0.000949 µM, first compound 0.316 µM) 103% | viability, T/C (second compound 0.000949 µM, first compound 1 µM) 100% | viability, T/C (second compound 0.000949 µM, first compound 3.16 µM) 46.6% | viability, T/C (second compound 0.003 µM, first compound 0.0316 µM) 97.9% | viability, T/C (second compound 0.003 µM, first compound 0.1 µM) 92.7% | viability, T/C (second compound 0.003 µM, first compound 0.316 µM) 97.4% | viability, T/C (second compound 0.003 µM, first compound 1 µM) 96.8% | viability, T/C (second compound 0.003 µM, first compound 3.16 µM) 48.9% | viability, T/C (second compound 0.00949 µM, first compound 0.0316 µM) 101% | viability, T/C (second compound 0.00949 µM, first compound 0.1 µM) 102% | viability, T/C (second compound 0.00949 µM, first compound 0.316 µM) 95.9% | viability, T/C (second compound 0.00949 µM, first compound 1 µM) 102% | viability, T/C (second compound 0.00949 µM, first compound 3.16 µM) 45.1% | viability, T/C (second compound 0.03 µM, first compound 0.0316 µM) 94.2% | viability, T/C (second compound 0.03 µM, first compound 0.1 µM) 96.5% | viability, T/C (second compound 0.03 µM, first compound 0.316 µM) 103% | viability, T/C (second compound 0.03 µM, first compound 1 µM) 108% | viability, T/C (second compound 0.03 µM, first compound 3.16 µM) 42.8% | viability, T/C (second compound 0.0949 µM, first compound 0.0316 µM) 97.6% | viability, T/C (second compound 0.0949 µM, first compound 0.1 µM) 99% | viability, T/C (second compound 0.0949 µM, first compound 0.316 µM) 97.4% | viability, T/C (second compound 0.0949 µM, first compound 1 µM) 106% | viability, T/C (second compound 0.0949 µM, first compound 3.16 µM) 45% | viability, T/C (second compound 0.3 µM, first compound 0.0316 µM) 91.9% | viability, T/C (second compound 0.3 µM, first compound 0.1 µM) 92.6% | viability, T/C (second compound 0.3 µM, first compound 0.316 µM) 94.3% | viability, T/C (second compound 0.3 µM, first compound 1 µM) 101% | viability, T/C (second compound 0.3 µM, first compound 3.16 µM) 34.9%
2860 nM: IC50 (second compound 0.00949 µM)
2850 nM: IC50 (second compound 0.0949 µM)
2360 nM: IC50 (second compound 0.3 µM)
2740 nM: IC50 (second compound 0.03 µM)
active: viability, T/C (second compound 0.000949 µM, first compound 10 µM) 2.15% | viability, T/C (second compound 0.003 µM, first compound 10 µM) 1.8% | viability, T/C (second compound 0.00949 µM, first compound 10 µM) 2.14% | viability, T/C (second compound 0.03 µM, first compound 10 µM) 2.25% | viability, T/C (second compound 0.0949 µM, first compound 10 µM) 2.54% | viability, T/C (second compound 0.3 µM, first compound 10 µM) 3.21%
